Test results: PubChem BioAssay AID330 (DTP/NCI, 2004)
Values joined by “and” are separate entries in the source; they are usually repeats but may differ in a detail not shown here. Equal entries are not always repeated. Inconclusive results and toxic doses are left out. Square brackets hold non-standard residues; d marks the D form. Peptide text beside a SMILES is read from it. Abu = CC[CH](N)C(=O)O

System: P388 leukemia ip, CD2F1 mice, survival T/C
Experiment: NCI In Vivo Anticancer Drug Screen. Data for tumor model P388 Leukemia (intraperitoneal) in CD2F1 (CDF1) mice
Conditions: endpoint: median survival time, higher = longer survival
Method in brief: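 Mice carrying the transplanted tumor received test compound or vehicle. Survival was recorded in each group, and the value is the treated-group measurement divided by that of the vehicle-treated control group.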

[1] = dose: 3.12 mg/kg/injection, schedule: Q01DX005 (ip), vehicle: Klucel (hydroxypropylcellulose) (HPC)
[2] = dose: 6.25 mg/kg/injection, schedule: Q01DX005 (ip), vehicle: Klucel (hydroxypropylcellulose) (HPC)
[3] = dose: 12.5 mg/kg/injection, schedule: Q01DX005 (ip), vehicle: Klucel (hydroxypropylcellulose) (HPC)
[4] = dose: 100.0 mg/kg/injection, schedule: Q04DX003 (ip), vehicle: saline with Tween-80
[5] = dose: 200.0 mg/kg/injection, schedule: Q04DX003 (ip), vehicle: saline with Tween-80
[6] = dose: 50.0 mg/kg/injection, schedule: Q01DX009 (ip), vehicle: saline with Tween-80
[7] = dose: 100.0 mg/kg/injection, schedule: Q01DX009 (ip), vehicle: saline with Tween-80
[8] = dose: 200.0 mg/kg/injection, schedule: Q01DX009 (ip), vehicle: saline with Tween-80
[9] = dose: 25.0 mg/kg/injection, schedule: Q01DX009 (ip), vehicle: saline with Tween-80
[10] = dose: 50.0 mg/kg/injection, schedule: Q01DX005 (ip), vehicle: saline with Tween-80
[11] = dose: 50.0 mg/kg/injection, schedule: Q01DX005 (ip), vehicle: saline
[12] = dose: 100.0 mg/kg/injection, schedule: Q01DX005 (ip), vehicle: saline
[13] = dose: 200.0 mg/kg/injection, schedule: Q01DX005 (ip), vehicle: saline
[14] = dose: 60.0 mg/kg/injection, schedule: Q01DX005 (ip), vehicle: saline with Tween-80

NNc1c(C(N)=O)c2c(N)ncnc2n1C1OC(CO)C(O)C1O (stereo not drawn)
T/C [1]: 157 % of control | T/C [2]: 166 % of control | T/C [3]: 157 % of control | T/C (dose: 50.0 mg/kg/injection, schedule: Q04DX003 (ip), vehicle: Klucel (hydroxypropylcellulose) (HPC)): 115 % of control | T/C (dose: 100.0 mg/kg/injection, schedule: Q04DX003 (ip), vehicle: Klucel (hydroxypropylcellulose) (HPC)): 115 % of control | T/C (dose: 100.0 mg/kg/injection, schedule: Q04DX003 (ip), vehicle: water): 120 % of control | T/C (dose: 200.0 mg/kg/injection, schedule: Q04DX003 (ip), vehicle: water): 86 % of control

Cc1cccc(C(=O)/C=C2/CCCN2C)c1
T/C [4]: 110 % of control | T/C [5]: 93 % of control

CCOC(=O)N/N=C/c1ccc[nH]1
T/C (dose: 1.8 mg/kg/injection, schedule: Q01DX005 (ip), vehicle: saline with Tween-80): 100 % of control | T/C (dose: 3.75 mg/kg/injection, schedule: Q01DX005 (ip), vehicle: saline with Tween-80): 100 % of control | T/C (dose: 7.5 mg/kg/injection, schedule: Q01DX005 (ip), vehicle: saline with Tween-80): 101 % of control and 103 % of control

CS(=O)(=O)OCC1OC(n2ncc(=O)[nH]c2=O)C(O)C1O (stereo not drawn)
T/C [6]: 100 % of control | T/C [7]: 95 % of control | T/C [8]: 101 % of control

O=C(O)c1ccc2ccccc2n1
T/C (dose: 100.0 mg/kg/injection, schedule: Q04DX002 (ip), vehicle: saline): 96 % of control | T/C (dose: 200.0 mg/kg/injection, schedule: Q04DX002 (ip), vehicle: saline): 94 % of control | T/C (dose: 400.0 mg/kg/injection, schedule: Q04DX002 (ip), vehicle: saline): 104 % of control

Clc1cc(Cl)c(OCC#CI)c(Cl)c1Cl
T/C [6]: 86 % of control | T/C [4]: 109 % of control | T/C [5]: 100 % of control

O=[N+]([O-])c1ccc(O)c(CNCCCl)c1
T/C (dose: 25.0 mg/kg/injection, schedule: Q04DX002 (ip), vehicle: DMSO): 95 % of control | T/C (dose: 50.0 mg/kg/injection, schedule: Q04DX002 (ip), vehicle: DMSO): 98 % of control | T/C (dose: 100.0 mg/kg/injection, schedule: Q04DX002 (ip), vehicle: DMSO): 89 % of control

CN(C)N1C(=O)c2ccccc2NC1c1ccccc1 (stereo not drawn)
T/C (dose: 50.0 mg/kg/injection, schedule: Q01DX005 (ip), vehicle: Klucel (hydroxypropylcellulose) (HPC)): 87 % of control | T/C (dose: 100.0 mg/kg/injection, schedule: Q01DX005 (ip), vehicle: Klucel (hydroxypropylcellulose) (HPC)): 96 % of control | T/C (dose: 200.0 mg/kg/injection, schedule: Q01DX005 (ip), vehicle: Klucel (hydroxypropylcellulose) (HPC)): 94 % of control

Cc1cc(Nc2ccc(N(CCCl)CCCl)cc2)cc(C)c1O
T/C (dose: 6.25 mg/kg/injection, schedule: Q01DX009 (ip), vehicle: saline with Tween-80): 151 % of control | T/C (dose: 12.5 mg/kg/injection, schedule: Q01DX009 (ip), vehicle: saline with Tween-80): 154 % of control and 169 % of control | T/C [9]: 169 % of control and 175 % of control

C=C1C(=O)OC2C(OC(C)=O)C1C(OC(=O)C(C)CC)[C@]1(C)C(=O)C=C[C@H]1[C@@H]2C (stereo partly drawn)
T/C (dose: 0.78 mg/kg/injection, schedule: Q01DX005 (ip), vehicle: Klucel (hydroxypropylcellulose) (HPC)): 97 % of control | T/C (dose: 1.56 mg/kg/injection, schedule: Q01DX005 (ip), vehicle: Klucel (hydroxypropylcellulose) (HPC)): 101 % of control and 113 % of control | T/C [1]: 111 % of control | T/C [2]: 116 % of control and 122 % of control | T/C [3]: 99 % of control and 102 % of control

c1ccc2c(Nc3nccs3)c3ccccc3nc2c1
T/C (dose: 12.5 mg/kg/injection, schedule: Q04DX002 (ip), vehicle: distilled water + Tween-80): 96 % of control | T/C (dose: 25.0 mg/kg/injection, schedule: Q04DX002 (ip), vehicle: distilled water + Tween-80): 96 % of control | T/C (dose: 50.0 mg/kg/injection, schedule: Q04DX002 (ip), vehicle: distilled water + Tween-80): 88 % of control | T/C (dose: 100.0 mg/kg/injection, schedule: Q04DX002 (ip), vehicle: distilled water + Tween-80): 94 % of control | T/C (dose: 200.0 mg/kg/injection, schedule: Q04DX002 (ip), vehicle: distilled water + Tween-80): 98 % of control | T/C (dose: 400.0 mg/kg/injection, schedule: Q04DX002 (ip), vehicle: distilled water + Tween-80): 103 % of control

Cc1csc2nc(-c3ccccc3)cn12
T/C [10]: 98 % of control | T/C (dose: 100.0 mg/kg/injection, schedule: Q01DX005 (ip), vehicle: saline with Tween-80): 96 % of control | T/C (dose: 200.0 mg/kg/injection, schedule: Q01DX005 (ip), vehicle: saline with Tween-80): 97 % of control

CCC(N)C(=O)NC(CO)C(=O)O (stereo not drawn) (H-[Abu]-Ser-OH; configuration not given here)
T/C [11]: 106 % of control | T/C [12]: 109 % of control | T/C [13]: 106 % of control

CCOC(=O)c1ccc(NC(=O)CCOc2ccccc2)cc1
T/C (dose: 60.0 mg/kg/injection, schedule: Q01DX005 (ip), vehicle: Klucel (hydroxypropylcellulose) (HPC)): 88 % of control | T/C (dose: 120.0 mg/kg/injection, schedule: Q01DX005 (ip), vehicle: Klucel (hydroxypropylcellulose) (HPC)): 88 % of control | T/C (dose: 240.0 mg/kg/injection, schedule: Q01DX005 (ip), vehicle: Klucel (hydroxypropylcellulose) (HPC)): 87 % of control

CC(C)C(=O)NCCCCCN1CCCCC1
T/C [11]: 106 % of control | T/C [12]: 99 % of control | T/C [13]: 99 % of control

COc1ccc(C(=O)CC(C(=O)O)c2ccc(OC)c(OC)c2)cc1OC (stereo not drawn)
T/C [4]: 90 % of control | T/C [5]: 86 % of control | T/C (dose: 400.0 mg/kg/injection, schedule: Q04DX003 (ip), vehicle: saline with Tween-80): 86 % of control

COc1ccc(-c2cc(=O)c3ccc4c(O)cccc4c3o2)cc1
T/C [6]: 94 % of control | T/C [7]: 100 % of control | T/C [8]: 97 % of control | T/C (dose: 400.0 mg/kg/injection, schedule: Q01DX009 (ip), vehicle: saline with Tween-80): 90 % of control

O=C(/C=C/c1c[nH]c2ccccc12)c1ccccc1[N+](=O)[O-]
T/C [14]: 94 % of control | T/C (dose: 120.0 mg/kg/injection, schedule: Q01DX005 (ip), vehicle: saline with Tween-80): 90 % of control

CC(C=O)[Se]c1ccccc1 (stereo not drawn)
T/C [14]: 100 % of control

O=C1CC(CO)CC2c3[nH]c4ccccc4c3CCN12 (stereo not drawn)
T/C (dose: 17.5 mg/kg/injection, schedule: Q01DX005 (ip), vehicle: Klucel (hydroxypropylcellulose) (HPC)): 108 % of control | T/C (dose: 35.0 mg/kg/injection, schedule: Q01DX005 (ip), vehicle: Klucel (hydroxypropylcellulose) (HPC)): 91 % of control | T/C (dose: 70.0 mg/kg/injection, schedule: Q01DX005 (ip), vehicle: Klucel (hydroxypropylcellulose) (HPC)): 97 % of control

[N-]=[N+]=NCN1C(=O)C2C3C=CC(C2C1=O)C1C2C(=O)N(CN=[N+]=[N-])C(=O)C2C31 (stereo not drawn)
T/C [9]: 106 % of control | T/C [6]: 108 % of control | T/C [7]: 100 % of control | T/C [8]: 115 % of control

O=C(Nc1cc(Cl)ccc1C(=O)O)c1cccc(C[n+]2ccccc2)c1
T/C (dose: 12.5 mg/kg/injection, schedule: Q01DX005 (ip), vehicle: saline with Tween-80): 91 % of control | T/C (dose: 25.0 mg/kg/injection, schedule: Q01DX005 (ip), vehicle: saline with Tween-80): 102 % of control | T/C [10]: 102 % of control

CN=C(NC)c1ccc(NC(=O)Nc2ccc(C)c(NC(=O)Nc3ccc(C(=NC)NC)cc3)c2)cc1
T/C (dose: 1.56 mg/kg/injection, schedule: Q01DX005 (ip), vehicle: saline): 96 % of control | T/C (dose: 3.12 mg/kg/injection, schedule: Q01DX005 (ip), vehicle: saline): 99 % of control | T/C (dose: 6.25 mg/kg/injection, schedule: Q01DX005 (ip), vehicle: saline): 96 % of control | T/C (dose: 6.25 mg/kg/injection, schedule: Q01DX005 (ip), vehicle: suspension in saline): 103 % of control

FC(F)(F)C1(C(F)(F)F)O[Te]2(OC(C(F)(F)F)(C(F)(F)F)c3ccccc32)c2ccccc21
T/C (dose: 80.0 mg/kg/injection, schedule: Q04DX002 (ip), vehicle: Klucel (hydroxypropylcellulose) (HPC)): 96 % of control | T/C (dose: 160.0 mg/kg/injection, schedule: Q04DX002 (ip), vehicle: Klucel (hydroxypropylcellulose) (HPC)): 102 % of control | T/C (dose: 320.0 mg/kg/injection, schedule: Q04DX002 (ip), vehicle: Klucel (hydroxypropylcellulose) (HPC)): 105 % of control

Cc1cccc2c1CN1CC(=O)NC1=N2
T/C (dose: 50.0 mg/kg/injection, schedule: Q01DX009 (ip), vehicle: Klucel (hydroxypropylcellulose) (HPC)): 103 % of control | T/C (dose: 100.0 mg/kg/injection, schedule: Q01DX009 (ip), vehicle: Klucel (hydroxypropylcellulose) (HPC)): 97 % of control | T/C (dose: 200.0 mg/kg/injection, schedule: Q01DX009 (ip), vehicle: Klucel (hydroxypropylcellulose) (HPC)): 86 % of control
